Measured values from BindingDB's records for doi:10.7270/Q2NG4P21 (Nmmlsc, 2009).

These molecules were tested against T1, Bcl-2-like protein 10 [11-204] (Homo sapiens, UniProt Q9HD36) (assay: inhibitors of Bim-Bcl-B binding, confirmation, biochemical, dose response, multiplexed HTS hits (AID 2077)). Details: not given.
T1 construct: 11-204
T1 sequence (Q9HD36 whole entry): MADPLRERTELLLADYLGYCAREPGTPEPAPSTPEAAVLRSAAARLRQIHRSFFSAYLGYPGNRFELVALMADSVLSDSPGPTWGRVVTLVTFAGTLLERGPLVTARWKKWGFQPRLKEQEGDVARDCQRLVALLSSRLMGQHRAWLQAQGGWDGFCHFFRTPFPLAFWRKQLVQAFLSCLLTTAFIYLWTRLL
`Cc1ccc(C=NNC(=O)CSc2nnc(-c3ccc(Cl)cc3)n2-c2ccccc2)o1` [SMR000218122] was tested, and the EC50 was 16.4 µM.
For `O=C(Nc1nnc(COc2ccc(Cl)cc2)s1)c1ccco1` [N-[5-[(4-chloranylphenoxy)methyl]-1,3,4-thiadiazol-2-yl]furan-2-carboxamide], the EC50 was 1.46 µM.
Molecule `COc1ccc(N2C(=O)C(Cl)=C(Oc3cccc(OC)c3)C2=O)cc1` [3-chloro-4-(3-methoxyphenoxy)-1-(4-methoxyphenyl)-1H-pyrrole-2,5-dione] has an EC50 of 0.61 µM.
With `O=C1NC(=O)C2(Cc3c(nc4ccccn4c3=O)N3CCCCCC32)C(=O)N1Cc1ccccc1` (centres undefined) [MLS000083668] the EC50 was 6.4 µM.
`CC(=O)Nc1ccc(-n2cc(-c3ccccc3)[nH]c2=S)cc1` [MLS001001946] gave an EC50 of 0.92 µM.
`O=c1c2c(n3nnnc3n1Cc1ccccc1)-c1ccccc1CC21CCCC1` [MLS000030575] gave an EC50 of 3.57 µM.
`CCN(CC)c1ccc(NC(=O)c2ccccc2Br)cc1S(=O)(=O)Nc1ccccc1OC` showed an EC50 of 8.66 µM.
For `S=c1[nH]cc(-c2ccccc2)n1-c1ccccc1` [SMR000196363], the EC50 was 0.32 µM.
In the case of `O=C1C(=Cc2ccco2)NC(=S)N1c1ccccc1` [(5E)-5-(furan-2-ylmethylidene)-3-phenyl-2-sulfanylideneimidazolidin-4-one], the EC50 is reported as 2.9 µM.

Same assay, conditions: inactive by the depositor's call
For `O=c1[nH]c(O)c(Cc2ccc(-c3cc(Cl)ccc3[N+](=O)[O-])o2)c(=O)[nH]1`, the EC50 was 36.5 µM.
For `COc1ccccc1-n1c(-c2ccccc2)c[nH]c1=S` [MLS001007615], the EC50 was 24.4 µM.
With `Clc1nc(NCc2cccnc2)nc(N2CCOCC2)n1` [MLS000121154] the EC50 was 13.5 µM.
Molecule `O=C(NCc1ccccc1)c1ccc2nc(-c3ccco3)c(-c3ccco3)nc2c1` [2,3-bis(furan-2-yl)-N-(phenylmethyl)quinoxaline-6-carboxamide] has an EC50 of 31.6 µM.
In the case of `Cc1cc(-c2cc(-c3ccc(Cl)cc3)nc(N)c2C#N)co1` [2-azanyl-6-(4-chlorophenyl)-4-(5-methylfuran-3-yl)pyridine-3-carbonitrile], the EC50 is reported as 15.2 µM.
